This is an account of results in US9399626B2, “2-thiopyrimidinones” (Pfizer Inc., priority 2011, dated 2016).

The test concerns the target T1, MPO (purified from human polynuclear leukocytes) (Homo sapiens, UniProt P05164).
T1 construct: purified from human polynuclear leukocytes; purchased Calbiochem/EMD Biosciences; host or cells: human polynuclear leukocytes (natural source)
The test is described as follows: MPO Amplex Red Activity Assay. Format: biochemical. To be noted: Table 1A, 2 μM H2O2, pH 7.4. In short, it runs like this:
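Potency is given as kinact/KI: kobs values from 600 s progress curves, minus the uninhibited rate, are fit against inhibitor concentration. Reactions use 2 μM H2O2, 30 μM Amplex Red, pH 7.4 phosphate buffer with NaCl, DTPA and 2% DMSO, started with […] human MPO. Readout is resorufin fluorescence, catalase background subtracted.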

T1 sequence (P05164 279-745 limits assumed): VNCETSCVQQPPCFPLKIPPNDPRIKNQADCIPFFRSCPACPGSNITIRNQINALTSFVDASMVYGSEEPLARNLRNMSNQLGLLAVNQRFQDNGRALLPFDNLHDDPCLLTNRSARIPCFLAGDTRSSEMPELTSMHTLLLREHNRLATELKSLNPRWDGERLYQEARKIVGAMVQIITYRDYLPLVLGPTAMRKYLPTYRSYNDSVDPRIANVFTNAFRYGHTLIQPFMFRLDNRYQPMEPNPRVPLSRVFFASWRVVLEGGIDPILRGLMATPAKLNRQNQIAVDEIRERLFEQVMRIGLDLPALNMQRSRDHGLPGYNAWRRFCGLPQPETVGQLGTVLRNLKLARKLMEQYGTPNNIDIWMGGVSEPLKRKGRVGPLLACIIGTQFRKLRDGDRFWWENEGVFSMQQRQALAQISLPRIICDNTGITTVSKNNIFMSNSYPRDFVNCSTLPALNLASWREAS
T1 sequence (P05164 165-273 limits assumed): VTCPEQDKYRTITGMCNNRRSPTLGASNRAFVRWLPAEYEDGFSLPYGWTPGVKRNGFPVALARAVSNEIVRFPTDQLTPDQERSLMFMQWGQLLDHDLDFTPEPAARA

Take `CCNC(=O)Cn1c(-c2ccc(OC)cc2OC)cc(=O)[nH]c1=S` [Example 434, 2-[6-(2,4-dimethoxyphenyl)-4-oxo-2-thioxo-3,4-dihydropyrimidin-1(2H)-yl]-N-ethylacetamide]: the “MPO kinact/Ki” value is 4070 1/s per M.
Turning to `CCCNC(=O)Cn1c(-c2ccc(OC)cc2OC)cc(=O)[nH]c1=S` [Example 435, 2-[6-(2,4-dimethoxyphenyl)-4-oxo-2-thioxo-3,4-dihydropyrimidin-1(2H)-yl]-N-propylacetamide], the “MPO kinact/Ki” value is 2420 1/s per M.
In the case of `COCCNC(=O)Cn1c(-c2ccc(OC)cc2OC)cc(=O)[nH]c1=S` [Example 436, 2-[6-(2,4-dimethoxyphenyl)-4-oxo-2-thioxo-3,4-dihydropyrimidin-1(2H)-yl]-N-(2-methoxyethyl)acetamide], the “MPO kinact/Ki” value is recorded as 3710 1/s per M.
As for `COc1ccc(-c2cc(=O)[nH]c(=S)n2CC(=O)N[C@H]2C[C@H](N)C2)c(OC)c1` [Example 437, N-(trans-3-aminocyclobutyl)-2-[6-(2,4-dimethoxyphenyl)-4-oxo-2-thioxo-3,4-dihydropyrimidin-1(2H)-yl]acetamide], the “MPO kinact/Ki” value is listed as 3400 1/s per M.
With `COc1ccc(-c2cc(=O)[nH]c(=S)n2CC(=O)NC2CNC2)c(OC)c1` [Example 438, N-(azetidin-3-yl)-2-[6-(2,4-dimethoxyphenyl)-4-oxo-2-thioxo-3,4-dihydropyrimidin-1(2H)-yl]acetamide] the figure was 7550 1/s per M.
`COc1ccc(-c2cc(=O)[nH]c(=S)n2CC(=O)N[C@H]2CC[C@@H]2N)c(OC)c1` [Example 439, N-[(1S,2S)-2-aminocyclobutyl]-2-[6-(2,4-dimethoxyphenyl)-4-oxo-2-thioxo-3,4-dihydropyrimidin-1(2H)-yl]acetamide]: the “MPO kinact/Ki” value was 9200 1/s per M.
As for `COc1ccc(-c2cc(=O)[nH]c(=S)n2CCN(C)C(=O)CN)c(OC)c1` [Example 440, N-{2-[6-(2,4-dimethoxyphenyl)-4-oxo-2-thioxo-3,4-dihydropyrimidin-1(2H)-yl]ethyl}-N-methylglycinamide], the “MPO kinact/Ki” value is recorded as 3310 1/s per M.
For the molecule `COc1ccc(-c2cc(=O)[nH]c(=S)n2CC(=O)N[C@@H]2CC[C@H]2N)c(OC)c1` [Example 441, N-[(1R,2R)-2-aminocyclobutyl]-2-[6-(2,4-dimethoxyphenyl)-4-oxo-2-thioxo-3,4-dihydropyrimidin-1(2H)-yl]acetamide], the “MPO kinact/Ki” value is 3260 1/s per M.
Consider `COc1ccc(-c2cc(=O)[nH]c(=S)n2CC(=O)NCCCN)c(OC)c1` [Example 442, N-(3-aminopropyl)-2-[6-(2,4-dimethoxyphenyl)-4-oxo-2-thioxo-3,4-dihydropyrimidin-1(2H)-yl]acetamide], for which the “MPO kinact/Ki” value is given as 12300 1/s per M.
On to `COc1ccc(-c2cc(=O)[nH]c(=S)n2CC(=O)NCC(F)(F)CN)c(OC)c1` [Example 443, N-(3-amino-2,2-difluoropropyl)-2-[6-(2,4-dimethoxyphenyl)-4-oxo-2-thioxo-3,4-dihydropyrimidin-1(2H)-yl]acetamide], for which the “MPO kinact/Ki” value is on record as 7330 1/s per M.
`COc1ccc(-c2cc(=O)[nH]c(=S)n2CCC(=O)NCCN)c(OC)c1` [Example 444, N-(2-aminoethyl)-3-[6-(2,4-dimethoxyphenyl)-4-oxo-2-thioxo-3,4-dihydropyrimidin-1(2H)-yl]propanamide]: the “MPO kinact/Ki” value is recorded as 17400 1/s per M.
With `COc1ccc(-c2cc(=O)[nH]c(=S)n2CC(=O)NCCNCC2CC2)c(OC)c1` [Example 445, N-{2-[(cyclopropylmethyl)amino]ethyl}-2-[6-(2,4-dimethoxyphenyl)-4-oxo-2-thioxo-3,4-dihydropyrimidin-1(2H)-yl]acetamide] the figure was 7350 1/s per M.
With `COc1ccc(-c2cc(=O)[nH]c(=S)n2CCC(=O)NC(=N)N)c(OC)c1` [Example 446, N-carbamimidoyl-3-{6-(2,4-dimethoxyphenyl)-4-oxo-2-thioxo-3,4-dihydropyrimidin-1(2H)-yl]propanamide], the “MPO kinact/Ki” value is given as 14200 1/s per M.
